According to patent US9440964B2, “Pesticidal compositions and processes related thereto” (Dow AgroSciences LLC, priority 2011, dated 2016):

Assays:
[1] = tested on: BAW (Spodoptera exigua); experiment: Bioassay on Beet Armyworm (BAW), 128-well diet tray; type: in vivo; settings: percent mortality, second instar larvae, five to seven days; for pest or weed control at 50 µg/cm2: Spodoptera exigua, 168 h, 50 μg/cm^2 on diet, read-out: Rating BAW
Experimental: (§1) Certain molecules disclosed in this document were tested against BAW and CEW using procedures described in the following examples. In the reporting of the results, the “BAW & CEW Rating Table” was used (See Table Section).
Bioassays on BAW (Spodoptera exigua)
(§2) Trays were covered with a clear self-adhesive cover and held at 25° C., 14:10 light-dark for five to seven days. Percent mortality was recorded for the larvae in each well; activity in the eight wells was then averaged. The results are indicated in the table entitled “Table ABC: Biological Results” (See Table Section).

[2] = tested on: CEW (Helicoverpa zea); experiment: Bioassay on Corn Earworm (CEW), 128-well diet tray; type: in vivo; settings: percent mortality, second instar larvae, five to seven days; for pest or weed control at 50 µg/cm2 / pest or weed control at 0.5 µg/cm2: Helicoverpa zea, 168 h; for pest or weed control at 50 µg/cm2: 50 μg/cm^2 on diet, read-out: Rating CEW; for pest or weed control at 0.5 µg/cm2: 0.5 μg/cm^2 on diet, read-out: Rating CEW (*Tested at 0.5 μg/cm^2)
Experimental: as §1
Bioassays on CEW (Helicoverpa zea)
as §2

CC(C)c1ccccc1N1C(=O)CS/C1=C\C(=O)Nc1ccc(-c2ncn(-c3ccc(OC(F)(F)F)cc3)n2)cc1 [Molecule A24, (Z)-2-(3-(2-isopropylphenyl)-4-oxothiazolidin-2-ylidene)-N-(4-(1-(4-(trifluoromethoxy)phenyl)-1H-1,2,4-triazol-3-yl)phenyl)acetamide]
pest or weed control at 50 µg/cm2 [1]: 50 to 100% | pest or weed control at 50 µg/cm2 [2]: 50 to 100%

Cc1ccccc1N/C(S)=C(\C#N)C(=O)Nc1ccc(-c2ncn(-c3ccc(OC(F)(F)F)cc3)n2)cc1 [Molecule A29, (Z)-2-Cyano-3-mercapto-3-(o-tolylamino)-N-(4-(1-(4-(trifluoromethoxy)phenyl)-1H-1,2,4-triazol-3-yl)phenyl)acrylamide]
pest or weed control at 50 µg/cm2 [1]: 0 to 50% | pest or weed control at 50 µg/cm2 [2]: 50 to 100%

CC(C)c1ccccc1N1C(=O)CS/C1=C(/C#N)C(=O)Nc1ccc(-c2ncn(-c3ccc(OC(F)(F)F)cc3)n2)cc1 [Molecule A31, (Z)-2-Cyano-2-(3-(2-isopropylphenyl)-4-oxothiazolidin-2-ylidene)-N-(4-(1-(4-(trifluoromethoxy)phenyl)-1H-1,2,4-triazol-3-yl)phenyl)acetamide]
pest or weed control at 50 µg/cm2 [1]: 50 to 100% | pest or weed control at 50 µg/cm2 [2]: 50 to 100%

Cc1cccc(C)c1N/C(O)=C/C(=O)Nc1ccc(-c2ncn(-c3ccc(OC(F)(F)F)cc3)n2)cc1 [Molecule A32, (Z)-3-(2,6-dimethylphenylamino)-3-hydroxy-I-(4-(1-(4-(trifluoromethoxy)phenyl)-1H-1,2,4-triazol-3-yl)phenyl)acrylamide]
pest or weed control at 50 µg/cm2 [1]: 50 to 100% | pest or weed control at 50 µg/cm2 [2]: 50 to 100%

Cc1cc(C)c(N2C(=O)CS/C2=N\C(=O)Nc2ccc(-c3ncn(-c4ccc(OC(F)(F)F)cc4)n3)cc2)c(C)c1 [Molecule A36]
pest or weed control at 50 µg/cm2 [1]: 50 to 100% | pest or weed control at 50 µg/cm2 [2]: 50 to 100%

Cc1cc(C)c(N2C(=O)C(C)S/C2=N\C(=O)Nc2ccc(-c3ncn(-c4ccc(OC(F)(F)F)cc4)n3)cc2)c(C)c1 (centres unmarked) [Molecule A37]
pest or weed control at 50 µg/cm2 [1]: 50 to 100% | pest or weed control at 50 µg/cm2 [2]: 50 to 100%

CCC1CS/C(=N\C(=O)Nc2ccc(-c3ncn(-c4ccc(OC(F)(F)F)cc4)n3)cc2)N1c1c(C)cc(C)cc1C (centres unmarked) [Molecule A38]
pest or weed control at 50 µg/cm2 [1]: 50 to 100% | pest or weed control at 50 µg/cm2 [2]: 50 to 100%

Cc1cccc(C)c1N1CC(C)CS/C1=N\C(=O)Nc1ccc(-c2ncn(-c3ccc(OC(F)(F)F)cc3)n2)cc1 (centres unmarked) [Molecule A39]
pest or weed control at 50 µg/cm2 [1]: 50 to 100% | pest or weed control at 50 µg/cm2 [2]: 50 to 100%

Cc1cc(C)c(N2/C(=N/C(=O)Nc3ccc(-c4ncn(-c5ccc(OC(F)(F)F)cc5)n4)cc3)SCC2C)c(C)c1 (centres unmarked) [Molecule A40]
Rating BAW (**Tested at 12.5 μg/cm^2) ([1]; 12.5 μg/cm^2 on diet): A** (50-100) | Rating CEW (**Tested at 12.5 μg/cm^2) ([2]; 12.5 μg/cm^2 on diet): A** (50-100)

Cc1cc(C)c(N2CC(C)CS/C2=N\C(=O)Nc2ccc(-c3ncn(-c4ccc(OC(F)(F)F)cc4)n3)cc2)c(C)c1 (centres unmarked) [Molecule A41]
pest or weed control at 50 µg/cm2 [1]: 50 to 100% | pest or weed control at 50 µg/cm2 [2]: 50 to 100%

CC(C)c1ccccc1N/C(S)=N/C(=O)Nc1ccc(-c2ncn(-c3ccc(OC(F)(F)F)cc3)n2)cc1 [Molecule A48]
pest or weed control at 50 µg/cm2 [1]: 50 to 100% | pest or weed control at 50 µg/cm2 [2]: 50 to 100%

Cc1cc(C)c(N/C(S)=N/C(=O)Nc2ccc(-c3ncn(-c4ccc(OC(F)(F)F)cc4)n3)cc2)c(C)c1 [Molecule A49]
pest or weed control at 50 µg/cm2 [1]: 50 to 100% | pest or weed control at 50 µg/cm2 [2]: 50 to 100%

COc1cc(C)c(N/C(S)=N/C(=O)Nc2ccc(-c3ncn(-c4ccc(OC(F)(F)F)cc4)n3)cc2)c(C)c1 [Molecule A50]
pest or weed control at 50 µg/cm2 [1]: 50 to 100% | pest or weed control at 50 µg/cm2 [2]: 50 to 100%

Cc1ccccc1NC(=O)NC(=O)Nc1ccc(-c2ncn(-c3ccc(OC(F)(F)F)cc3)n2)cc1 [Molecule A51]
pest or weed control at 50 µg/cm2 [1]: 50 to 100% | pest or weed control at 50 µg/cm2 [2]: 50 to 100%

CCc1ccccc1NC(=O)NC(=O)Nc1ccc(-c2ncn(-c3ccc(OC(F)(F)F)cc3)n2)cc1 [Molecule A52]
pest or weed control at 50 µg/cm2 [1]: 50 to 100% | pest or weed control at 50 µg/cm2 [2]: 50 to 100%

CCC(C)c1ccccc1N/C(=N\C(=O)Nc1ccc(-c2ncn(-c3ccc(OC(F)(F)F)cc3)n2)cc1)SCOC(=O)C(C)C (centres unmarked) [Molecule A54]
pest or weed control at 50 µg/cm2 [1]: 50 to 100% | pest or weed control at 50 µg/cm2 [2]: 50 to 100%

CCc1cccc(C)c1N/C(=N\C(=O)Nc1ccc(-c2ncn(-c3ccc(OC(F)(F)F)cc3)n2)cc1)SCOC(=O)C(C)C [Molecule A55]
pest or weed control at 50 µg/cm2 [1]: 50 to 100% | pest or weed control at 50 µg/cm2 [2]: 50 to 100%

COc1ccc(NC(NC(=O)Nc2ccc(-c3ncn(-c4ccc(OC(F)(F)F)cc4)n3)cc2)SCOC(=O)C(C)C)c(C)c1 (centres unmarked) [Molecule A56]
pest or weed control at 50 µg/cm2 [1]: 50 to 100% | pest or weed control at 50 µg/cm2 [2]: 50 to 100%

CCc1ccccc1N/C(=N\C(=O)Nc1ccc(-c2ncn(-c3ccc(OC(F)(F)F)cc3)n2)cc1)SCOC(=O)C(C)C [Molecule A57]
pest or weed control at 50 µg/cm2 [1]: 50 to 100% | pest or weed control at 50 µg/cm2 [2]: 50 to 100%

CC(C)C(=O)OCS/C(=N/C(=O)Nc1ccc(-c2ncn(-c3ccc(OC(F)(F)F)cc3)n2)cc1)Nc1c(Cl)cccc1Cl [Molecule A58]
pest or weed control at 50 µg/cm2 [1]: 50 to 100% | pest or weed control at 50 µg/cm2 [2]: 50 to 100%

Cc1cc(C)c(N/C(=N\C(=O)Nc2ccc(-c3ncn(-c4ccc(OC(F)(F)F)cc4)n3)cc2)SCOC(=O)C(C)C)c(C)c1 [Molecule A59]
pest or weed control at 50 µg/cm2 [1]: 50 to 100% | pest or weed control at 50 µg/cm2 [2]: 50 to 100%

Cc1ccccc1N/C(=N\C(=O)Nc1ccc(-c2ncn(-c3ccc(OC(F)(F)F)cc3)n2)cc1)SCOC(=O)C(C)C [Molecule A60]
pest or weed control at 50 µg/cm2 [1]: 50 to 100% | pest or weed control at 50 µg/cm2 [2]: 50 to 100%

CC(C)C(=O)OCS/C(=N/C(=O)Nc1ccc(-c2ncn(-c3ccc(OC(F)(F)F)cc3)n2)cc1)Nc1c(F)cccc1F [Molecule A61]
pest or weed control at 50 µg/cm2 [1]: 50 to 100% | pest or weed control at 50 µg/cm2 [2]: 50 to 100%

O=C(/N=C(\S)Nc1ccccc1C1CC1)Nc1ccc(-c2ncn(-c3ccc(OC(F)(F)F)cc3)n2)cc1 [Molecule A63]
pest or weed control at 50 µg/cm2 [1]: 50 to 100% | pest or weed control at 0.5 µg/cm2 [2]: 50 to 100%

CCCc1ccccc1N/C(S)=N/C(=O)Nc1ccc(-c2ncn(-c3ccc(OC(F)(F)F)cc3)n2)cc1 [Molecule A64]
pest or weed control at 50 µg/cm2 [1]: 50 to 100% | pest or weed control at 0.5 µg/cm2 [2]: 50 to 100%

CC(C)(C)c1ccccc1N/C(S)=N/C(=O)Nc1ccc(-c2ncn(-c3ccc(OC(F)(F)F)cc3)n2)cc1 [Molecule A67]
pest or weed control at 50 µg/cm2 [1]: 50 to 100% | pest or weed control at 0.5 µg/cm2 [2]: 50 to 100%

Cc1ccc(N/C(S)=N/C(=O)Nc2ccc(-c3ncn(-c4ccc(OC(F)(F)F)cc4)n3)cc2)c(C)c1 [Molecule A68]
pest or weed control at 50 µg/cm2 [1]: 50 to 100% | pest or weed control at 0.5 µg/cm2 [2]: 50 to 100%

Cc1cccc(Cl)c1N/C(S)=N/C(=O)Nc1ccc(-c2ncn(-c3ccc(OC(F)(F)F)cc3)n2)cc1 [Molecule A70]
pest or weed control at 50 µg/cm2 [1]: 50 to 100% | pest or weed control at 0.5 µg/cm2 [2]: 50 to 100%

Cc1ccc(Cl)cc1N/C(S)=N/C(=O)Nc1ccc(-c2ncn(-c3ccc(OC(F)(F)F)cc3)n2)cc1 [Molecule A72]
pest or weed control at 50 µg/cm2 [1]: 50 to 100% | pest or weed control at 0.5 µg/cm2 [2]: 50 to 100%

Cc1ccc(N/C(S)=N/C(=O)Nc2ccc(-c3ncn(-c4ccc(OC(F)(F)F)cc4)n3)cc2)c(Cl)c1 [Molecule A73]
pest or weed control at 50 µg/cm2 [1]: 50 to 100% | pest or weed control at 0.5 µg/cm2 [2]: 50 to 100%

Cc1cccc(Cl)c1N1C(=O)CS/C1=N\C(=O)Nc1ccc(-c2ncn(-c3ccc(OC(F)(F)F)cc3)n2)cc1 [Molecule A74]
pest or weed control at 50 µg/cm2 [1]: 50 to 100% | pest or weed control at 0.5 µg/cm2 [2]: 50 to 100%

Cc1cccc(N2C(=O)CS/C2=N\C(=O)Nc2ccc(-c3ncn(-c4ccc(OC(F)(F)F)cc4)n3)cc2)c1C [Molecule A75]
pest or weed control at 50 µg/cm2 [1]: 50 to 100% | pest or weed control at 0.5 µg/cm2 [2]: 50 to 100%

Cc1ccc(Cl)cc1N1C(=O)CS/C1=N\C(=O)Nc1ccc(-c2ncn(-c3ccc(OC(F)(F)F)cc3)n2)cc1 [Molecule A76]
pest or weed control at 50 µg/cm2 [1]: 50 to 100% | pest or weed control at 0.5 µg/cm2 [2]: 50 to 100%

Cc1c(F)cccc1N/C(S)=N/C(=O)Nc1ccc(-c2ncn(-c3ccc(OC(F)(F)F)cc3)n2)cc1 [Molecule A79]
pest or weed control at 50 µg/cm2 [1]: 50 to 100% | pest or weed control at 0.5 µg/cm2 [2]: 50 to 100%

CC(C)c1cccc(Cl)c1N/C(S)=N/C(=O)Nc1ccc(-c2ncn(-c3ccc(OC(F)(F)F)cc3)n2)cc1 [Molecule A81]
pest or weed control at 50 µg/cm2 [1]: 50 to 100% | pest or weed control at 50 µg/cm2 [2]: 50 to 100%

CC(C)c1ccc(F)cc1N/C(S)=N/C(=O)Nc1ccc(-c2ncn(-c3ccc(OC(F)(F)F)cc3)n2)cc1 [Molecule A82]
pest or weed control at 50 µg/cm2 [1]: 50 to 100% | pest or weed control at 0.5 µg/cm2 [2]: 50 to 100%

Cc1ccc(N/C(S)=N/C(=O)Nc2ccc(-c3ncn(-c4ccc(OC(F)(F)F)cc4)n3)cc2)c(C(C)C)c1 [Molecule A84]
pest or weed control at 50 µg/cm2 [1]: 50 to 100% | pest or weed control at 0.5 µg/cm2 [2]: 50 to 100%
